Reference: PMC5800941 (Biochemistry, 2017)
“Also recorded” adds a separate entry of the source.

Experiments:
[1] = target: CYP3A4 (Homo sapiens, UniProt P08684, S18F); test: Substrate binding to CYP3A4 in Nanodiscs: UV-Vis spectral titration; conditions: human, recombinant CYP3A4 in POPC Nanodiscs
[2] = target: T1, CYP3A4 in POPC Nanodiscs (Homo sapiens, UniProt P08684, S18F); test: Product formation; type: biochemical; conditions: binding intermediate with 1 substrate molecule bound; 37 C, pH 7.4
[3] = target: T1, CYP3A4 in POPC Nanodiscs; type: biochemical; conditions: mixture of ARVL and DND at constant molar ratio 2.9:1; one of each substrate bound
[4] = target: T1, CYP3A4 in POPC Nanodiscs; test: Substrate binding to CYP3A4 in Nanodiscs: UV-Vis spectral titration; conditions: for Fe^3+ Spin shift (fraction of high spin): 37 C

Row | Compound | Kd [1] [µM] | Product formation rate [2] | Rate of metabolism from the mixed intermediate [3] | Kd [4] [µM] | Fe^3+ Spin shift (fraction of high spin) ([4]; binding intermediate with 1 substrate molecule bound) | Fe^3+ Spin shift (fraction of high spin) ([4]; binding intermediate with 2 substrate molecules bound)
1 | CCCCc1oc2ccc(NS(C)(=O)=O)cc2c1C(=O)c1ccc(OCCCN(CCCC)CCCC)cc1 [DND, dronedarone] | 3.6 | 2.5 [1.6 – 3.4] min^−1 | No product of DND metabolism was detected; also recorded: completely inhibited | – | – | –
2 | CC(C)c1c(C(=O)Nc2ccccc2)c(-c2ccccc2)c(-c2ccc(F)cc2)n1CC[C@@H]1C[C@@H](O)CC(=O)O1 [ARVL, atorvastatin lactone] | 22 | 13 [9.6 – 14.7] min^−1 | 31 min⁻¹ | 1 | 22 [16 – 26] % | 62 [56 – 72] %
